Assay results: patent US20260224489A1, “TRICINE AND CITRIC ACID-BASED CATIONIC LIPIDS WITH AROMATIC HEAD GROUPS” (SANOFI, priority 2023, published 2026)

Columns and labels:
[1] = tested on: luciferase production in the lung; assay: Delivery of Firefly Luciferase (FFL) mRNA by intratracheal administration via catheter, IVIS imaging; format: in vivo, male CD1 mice; conditions: for FFLuc (Avr. Rad.): single intratracheal administration, lung; for in vivo FFL protein production (FIG. 8), in words: intratracheal delivery via catheter of FFL mRNA lipid nanoparticles to mice
Description: Lipid nanoparticle formulations 1, 2 and 4 were administered via intratracheal pulmonary delivery. Compound B was the only cationic lipid evaluated via intratracheal pulmonary delivery with lipid nanoparticle formulation 2. Compound A was the only cationic lipid evaluated via intratracheal pulmonary delivery with lipid nanoparticle formulation 4. All other cationic lipids were evaluated via intratracheal pulmonary delivery with lipid nanoparticle formulation 1.
Lipid nanoparticle formulations 1, 2 and 4 listed in Table 1 comprising FFL mRNA, cationic lipid, DMG-PEG2000, cholesterol and DOPE were administered to male CD1 mice (6-8 weeks old) by a single intratracheal administration via Catheter® (50 μl/animal) while under anesthesia. At approximately 24 hours post-dose, the animals were dosed with luciferin at 150 mg/kg (60 mg/mi) by intraperitoneal injection at 2.5 ml/kg. After 5-15 minutes, all animals were imaged using an IVIS imaging system to measure luciferase production in the lung.

[2] = Lipid degradability by human lung S9 in vitro; format: in vitro ADME; conditions: 2 μM lipid, 2.4 mg/ml lung S9, pH 7.4, 37° C., time points up to 48 hr
Description: (§1) Assay format—4 or 5 time points in triplicate.
(§2) • 1) Plan experiment, compounds, and reagents. • 2) Dissolve each lipid in DMSO or IPA to make 5 mM stock, then dilute by IPA to 200 μM work solution. • 3) Thaw mouse and human lung S9. • 4) Prepare pooled incubation mixture as in the reaction formulas below on ice. • 5) Aliquot 495 μL incubation mixture prepared in step #4 to each well of a 2 mL 96-well plate. • 6) Add 5 μL compound to each well to initiate the reaction. Take t0 samples (as in step #8). • 7) Cover the plate with 2 layers of breathable seals and incubate the plate on an orbital shaker at 150 rpm in a 37° C. CO2 incubator. • 8) At each time point, pipette to mix the incubation mixture 5 times, then take 70 μL of incubation mixture to a fresh plate. Store in −20° C. freezer immediately. • 9) Add 210 μL (3× volume) of the cold stop solution to each well of the sample plates collected. Mix at 600 rpm on an orbital shaker for 15 min. • 10) Centrifuge the quenched plates at 3800 rpm for 10 min at 4° C. and transfer supernatant to fresh plates. • 11) Load the supernatant on filter plates and centrifuge again at 3800 rpm for 5 min at 4° C. Collect final samples in fresh plates for LC/MS. • 11. Time course and stop solutions: 4-5 Time points (hour): e.g. 0, 4, 8, 24, 48 hr stop solution: 1:1:1 ACN/MeOH/IPA (v/v/v) with propranolol & MC3 as internal standard. Store at 4° C.

[3] = Lipid degradability by mouse lung S9 in vitro; format: in vitro ADME; conditions: 2 μM lipid, 2.4 mg/ml lung S9, pH 7.4, 37° C., time points up to 48 hr
Description: as §1, §2

[4] = dose 10 μg/Animal, lipid nanoparticle formulation 1, approximately 24 hours post-dose
[5] = dose 5 μg/Animal, lipid nanoparticle formulation 1, approximately 24 hours post-dose

Row | SMILES | In vitro degradation Human lung S9 [2] | In vitro degradation Mouse lung S9 [3] [h] | FFLuc (Avr. Rad.) [1, 4] | FFLuc (Avr. Rad.) [1, 5] | in vivo FFL protein production (FIG. 8), in words [1] | further results
1 | CCCCCCCCCCCCC(O)CN(CCCC(=O)Oc1c(OC)cc(C(=O)OCCCN(C)C)cc1OC)CC(O)CCCCCCCCCCCC (stereo not shown) [Compound A, reference compound] | – | – | – | – | – | FFLuc (Avr. Rad.) ([1]; dose 10 μg/Animal, lipid nanoparticle formulation 4, approximately 24 hours post-dose): 221,320 p/s/cm^2/sr
2 | CCCCCCCCOC(=O)CC(CC(=O)OCCCCCCCC)(OC(=O)CCN(C)C)C(=O)OCCCCCCCC [Compound B, reference compound] | – | – | – | – | – | FFLuc (Avr. Rad.) ([1]; dose 10 μg/Animal, lipid nanoparticle formulation 2, approximately 24 hours post-dose): 139,058 p/s/cm^2/sr
3 | CCCCC/C=C/COC(=O)CC(CC(=O)OC/C=C/CCCCC)(OC(=O)CCC(=O)Oc1c(OC)cc(C(=O)OCCCN(C)C)cc1OC)C(=O)OC/C=C/CCCCC [Compound III] | 17.1 h | 6.8 | 353,012 p/s/cm^2/sr | – | – | –
4 | CCCCCCCCOC(=O)CC(CC(=O)OCCCCCCCC)(OC(=O)CCC(=O)Oc1c(OC)cc(C(=O)OCCCN(C)C)cc1OC)C(=O)OCCCCCCCC [Compound II] | 20.2 h | 16.6 | – | 592,250 p/s/cm^2/sr | high levels of in vivo FFL protein production | –
5 | CCCCCCCCOC(=O)CC(CC(=O)OCCCCCCCC)(OC(=O)CCC(=O)Oc1c(OC)cc(C(=O)OCCN(C)C)cc1OC)C(=O)OCCCCCCCC [Compound I] | 20.2 h | 16.2 | – | 158,516 p/s/cm^2/sr | high levels of in vivo FFL protein production | –
6 | CCCCCC#CCOC(=O)CC(CC(=O)OCC#CCCCCC)(OC(=O)CCC(=O)Oc1c(OC)cc(C(=O)OCCCN(C)C)cc1OC)C(=O)OCC#CCCCCC [Compound V] | 14.8 h | 1.3 | 567,300 p/s/cm^2/sr | – | – | –
7 | CCCCCCCCOC(=O)CC(CC(=O)OCCCCCCCC)(OC(=O)CCC(=O)Oc1c(OC)cc(/C=C/C(=O)OCCCN(C)C)cc1OC)C(=O)OCCCCCCCC [Compound XXVI] | long (over 48 h | 36 | – | 140,620 p/s/cm^2/sr | high levels of in vivo FFL protein production | –
8 | CCCCCCCCOC(=O)CC(CC(=O)OCCCCCCCC)(OC(=O)/C=C/C(=O)Oc1c(OC)cc(C(=O)OCCCN(C)C)cc1OC)C(=O)OCCCCCCCC [Compound X] | – | – | 173,197 p/s/cm^2/sr | – | – | –
9 | CC(C)CCCC(C)[C@H]1CCC2C3CC=C4C[C@@H](OC(=O)CCc5c[nH]cn5)CC[C@]4(C)C3CC[C@@]21C (stereo partly shown) [ICE, imidazole cholesterol ester, reference compound] | – | – | 7,508 p/s/cm^2/sr | – | – | –
